Results taken from patent publication US20250214991A1 (Oncopia Therapeutics, Inc. d/b/a/ SK Life Science Labs, priority 2022, published 2025).

Legend:
CRBN/DDB1 = CRBN/DDB1 (Homo sapiens (Human), UniProt Q96SW2); assay: IC50 measurements for binding to CRBN/DDB1 (HTRF); settings: His tagged CRBN+DDB, Cy5-labeled Thalidomide probe, one hour
How it was run: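 HTRF competition binding with 2 nM His-tagged CRBN-DDB1 complex, 60 nM Cy5-thalidomide probe and 0.4 nM anti-His Tb cryptate in 50 mM HEPES pH 7.5, 1 mM TCEP, 0.01% Brij-35, 50 mM NaCl, 0.1% BSA. Read after 1 h at room temperature; IC50 from four-parameter dose-response fit.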

IKZF2 = IKZF2 (Homo sapiens (Human), UniProt Q96SW2+Q9UKS7); assay: In vitro IKZF2 HiBit Assay (HEK293T Flp-in-HiBiT cells); format: cell-based; settings: HEK293T Flp-in-HiBiT cells, 6 hrs incubation; for DC50: read-out: IKZF2 HiBit DC50; for Dmax: HEK-293T, read-out: IKZF2 HiBit Dmax (%)
How it was run: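 HEK293T Flp-in cells carrying an endogenous N-terminal HiBiT tag on IKZF2 were exposed to compound for 6 h at 0.1% DMSO. The dilution series was 11 doses at 3-fold, diluted from 1 mM. Nano-Glo HiBiT lytic luminescence, normalized to DMSO, gave DC50 for 50% degradation and Dmax across the concentration range, both reported in letter bins.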

IKZF1 = IKZF1 (Homo sapiens (Human), UniProt Q13422+Q96SW2); assay: In vitro IKZF1 HiBit Assay (HEK293T Flp-in-HiBiT-IKZF1 stable cell line); format: cell-based; settings: HEK293T Flp-in-HiBiT-IKZF1 stable cell line, 6 hrs incubation; for DC50: read-out: IKZF1 HiBit DC50; for Dmax: HEK-293T, read-out: IKZF1 HiBit Dmax (%)
How it was run: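 HEK293T Flp-in cells carrying N-terminal HiBiT-tagged IKZF1 were exposed to compound (0.1% DMSO) for 6 h at 3000 cells/well. HiBiT luminescence was read after lytic LgBiT detection. DC50 and Dmax were taken from DMSO-normalized dose-response curves.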

IKZF2, sequence (Q9UKS7 whole entry): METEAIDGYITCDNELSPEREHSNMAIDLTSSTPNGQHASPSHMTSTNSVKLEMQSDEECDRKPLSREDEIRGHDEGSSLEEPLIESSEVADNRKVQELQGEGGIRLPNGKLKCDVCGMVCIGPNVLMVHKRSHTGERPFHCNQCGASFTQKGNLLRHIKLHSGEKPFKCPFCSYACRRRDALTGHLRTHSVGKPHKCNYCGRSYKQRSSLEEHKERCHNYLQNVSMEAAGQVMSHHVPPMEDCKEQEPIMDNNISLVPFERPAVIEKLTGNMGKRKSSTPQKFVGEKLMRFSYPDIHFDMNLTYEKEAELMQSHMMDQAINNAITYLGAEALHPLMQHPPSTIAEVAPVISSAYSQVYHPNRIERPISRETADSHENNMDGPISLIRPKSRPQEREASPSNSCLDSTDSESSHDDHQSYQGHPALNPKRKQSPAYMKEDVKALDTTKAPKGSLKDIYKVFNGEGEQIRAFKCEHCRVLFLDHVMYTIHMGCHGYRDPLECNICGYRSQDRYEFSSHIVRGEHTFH
IKZF2, sequence (Q96SW2 whole entry): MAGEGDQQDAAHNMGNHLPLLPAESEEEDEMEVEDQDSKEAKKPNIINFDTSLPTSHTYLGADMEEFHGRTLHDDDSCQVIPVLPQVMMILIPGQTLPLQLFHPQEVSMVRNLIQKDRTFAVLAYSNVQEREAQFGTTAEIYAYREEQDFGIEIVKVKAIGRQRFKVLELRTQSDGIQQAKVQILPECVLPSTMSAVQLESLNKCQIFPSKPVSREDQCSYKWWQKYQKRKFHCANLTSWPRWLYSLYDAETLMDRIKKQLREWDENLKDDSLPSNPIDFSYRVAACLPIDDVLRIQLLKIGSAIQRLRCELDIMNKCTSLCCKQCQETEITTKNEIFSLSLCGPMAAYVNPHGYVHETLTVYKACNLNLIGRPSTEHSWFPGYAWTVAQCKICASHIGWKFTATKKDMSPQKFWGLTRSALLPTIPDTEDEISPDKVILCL
IKZF2, sequence (Q16531 2-1140 partner): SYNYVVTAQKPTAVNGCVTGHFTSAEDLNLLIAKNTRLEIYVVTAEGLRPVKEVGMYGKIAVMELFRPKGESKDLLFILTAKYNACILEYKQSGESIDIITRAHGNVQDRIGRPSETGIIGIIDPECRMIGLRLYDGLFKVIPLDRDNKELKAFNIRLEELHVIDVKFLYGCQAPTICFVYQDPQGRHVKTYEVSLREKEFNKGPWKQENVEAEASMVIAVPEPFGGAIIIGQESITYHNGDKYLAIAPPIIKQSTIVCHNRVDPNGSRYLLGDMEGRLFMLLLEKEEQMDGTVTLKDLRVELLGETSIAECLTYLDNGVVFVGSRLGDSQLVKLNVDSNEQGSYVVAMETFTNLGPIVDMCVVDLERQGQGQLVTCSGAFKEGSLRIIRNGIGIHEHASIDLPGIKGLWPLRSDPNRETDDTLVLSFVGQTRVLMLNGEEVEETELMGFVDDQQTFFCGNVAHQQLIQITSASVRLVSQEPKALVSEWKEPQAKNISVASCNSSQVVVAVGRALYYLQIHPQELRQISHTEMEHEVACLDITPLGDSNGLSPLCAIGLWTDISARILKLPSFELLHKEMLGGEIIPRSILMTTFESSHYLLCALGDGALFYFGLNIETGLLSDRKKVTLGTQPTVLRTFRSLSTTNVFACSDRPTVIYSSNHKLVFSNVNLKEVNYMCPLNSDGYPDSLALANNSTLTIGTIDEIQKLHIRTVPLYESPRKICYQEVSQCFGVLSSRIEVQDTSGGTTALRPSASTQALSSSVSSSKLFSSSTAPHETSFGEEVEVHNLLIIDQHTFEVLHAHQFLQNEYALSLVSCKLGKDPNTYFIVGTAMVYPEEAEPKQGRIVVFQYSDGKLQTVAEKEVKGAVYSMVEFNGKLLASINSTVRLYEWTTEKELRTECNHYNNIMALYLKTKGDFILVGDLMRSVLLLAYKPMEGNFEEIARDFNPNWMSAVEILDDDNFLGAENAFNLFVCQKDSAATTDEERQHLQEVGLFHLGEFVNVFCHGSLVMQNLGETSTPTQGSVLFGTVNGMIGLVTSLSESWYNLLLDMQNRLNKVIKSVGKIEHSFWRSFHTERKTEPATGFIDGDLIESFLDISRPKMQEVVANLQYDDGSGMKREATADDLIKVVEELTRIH
IKZF1, sequence (Q13422 whole entry): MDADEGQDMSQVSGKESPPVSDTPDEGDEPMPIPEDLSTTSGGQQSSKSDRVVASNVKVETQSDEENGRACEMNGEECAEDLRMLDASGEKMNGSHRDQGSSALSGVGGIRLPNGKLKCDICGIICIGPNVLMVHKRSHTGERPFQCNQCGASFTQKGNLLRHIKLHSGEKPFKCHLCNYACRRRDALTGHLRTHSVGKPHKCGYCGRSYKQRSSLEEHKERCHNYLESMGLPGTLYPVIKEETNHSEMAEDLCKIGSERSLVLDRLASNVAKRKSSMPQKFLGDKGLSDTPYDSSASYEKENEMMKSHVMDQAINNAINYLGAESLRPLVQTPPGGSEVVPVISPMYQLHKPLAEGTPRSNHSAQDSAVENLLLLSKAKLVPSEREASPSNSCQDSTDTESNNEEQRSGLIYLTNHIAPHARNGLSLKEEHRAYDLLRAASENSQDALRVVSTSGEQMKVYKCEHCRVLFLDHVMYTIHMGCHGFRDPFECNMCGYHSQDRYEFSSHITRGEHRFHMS
IKZF1, sequence (Q96SW2 whole entry): as the sequence (Q96SW2 whole entry) above
IKZF1, sequence (Q16531 2-1140 partner): as the sequence (Q16531 2-1140 partner) above
CRBN/DDB1, sequence (Q96SW2 whole entry, species assumed): as the sequence (Q96SW2 whole entry) above
CRBN/DDB1, sequence (Q16531 whole entry partner, species assumed): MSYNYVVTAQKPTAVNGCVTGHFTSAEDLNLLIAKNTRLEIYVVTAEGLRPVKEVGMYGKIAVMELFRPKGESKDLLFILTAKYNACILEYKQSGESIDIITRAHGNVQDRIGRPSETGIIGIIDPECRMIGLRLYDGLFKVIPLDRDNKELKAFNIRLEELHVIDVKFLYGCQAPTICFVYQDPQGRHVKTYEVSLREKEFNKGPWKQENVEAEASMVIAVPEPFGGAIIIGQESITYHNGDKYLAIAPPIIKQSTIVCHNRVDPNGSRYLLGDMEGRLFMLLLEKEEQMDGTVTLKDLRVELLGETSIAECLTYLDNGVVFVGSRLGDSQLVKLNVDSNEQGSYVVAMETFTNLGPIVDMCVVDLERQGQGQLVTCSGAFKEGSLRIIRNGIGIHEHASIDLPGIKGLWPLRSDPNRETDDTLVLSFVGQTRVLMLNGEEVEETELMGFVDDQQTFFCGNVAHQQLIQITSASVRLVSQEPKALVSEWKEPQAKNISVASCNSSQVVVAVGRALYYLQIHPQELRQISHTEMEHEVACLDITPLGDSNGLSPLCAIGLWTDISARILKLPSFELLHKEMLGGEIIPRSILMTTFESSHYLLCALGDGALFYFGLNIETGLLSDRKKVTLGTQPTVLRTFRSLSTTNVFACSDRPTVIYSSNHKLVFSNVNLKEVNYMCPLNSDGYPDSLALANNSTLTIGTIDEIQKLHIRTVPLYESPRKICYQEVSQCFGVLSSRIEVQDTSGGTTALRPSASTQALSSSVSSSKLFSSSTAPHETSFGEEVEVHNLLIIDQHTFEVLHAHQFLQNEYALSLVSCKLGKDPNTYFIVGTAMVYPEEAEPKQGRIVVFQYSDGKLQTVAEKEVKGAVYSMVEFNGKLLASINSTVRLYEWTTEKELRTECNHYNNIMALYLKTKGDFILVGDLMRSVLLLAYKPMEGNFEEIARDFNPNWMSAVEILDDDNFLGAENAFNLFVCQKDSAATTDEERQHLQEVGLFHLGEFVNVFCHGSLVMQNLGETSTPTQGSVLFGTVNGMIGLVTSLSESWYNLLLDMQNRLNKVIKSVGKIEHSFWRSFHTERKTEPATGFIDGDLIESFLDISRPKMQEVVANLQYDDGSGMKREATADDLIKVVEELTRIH

Cn1ccc2c(CN3CCCC3CO)cc(-c3ccc4c(c3)CN(C3CCC(=O)NC3=O)C4=O)nc21 (stereo not drawn) [Example 101, 3-(5-(4-((2-(hydroxymethyl)pyrrolidin-1-yl)methyl)-1-methyl-1H-pyrrolo[2,3-b]pyridin-6-yl)-1-oxoisoindolin-2-yl) piperidine-2,6-dione]
IC50 (CRBN/DDB1): 0.1 to 0.5 µM | DC50 (IKZF2): 0.001 to 0.01 µM | Dmax (IKZF2): > 80% | DC50 (IKZF1): > 10 µM | Dmax (IKZF1): < 20%

Cn1ccc2c(CN3CCCCC3)cc(-c3ccc4c(c3)CN(C3CCC(=O)NC3=O)C4=O)nc21 (stereo not drawn) [Example 57, 3-(5-(1-methyl-4-(piperidin-1-ylmethyl)-1H-pyrrolo[2,3-b]pyridin-6-yl)-1-oxoisoindolin-2-yl) piperidine-2,6-dione]
IC50 (CRBN/DDB1): 0.1 to 0.5 µM | DC50 (IKZF2): < 0.001 µM | Dmax (IKZF2): > 80% | DC50 (IKZF1): > 10 µM | Dmax (IKZF1): 20 to 40%

CCn1ccc2c(CN3CCCC3)cc(-c3ccc4c(c3)CN(C3CCC(=O)NC3=O)C4=O)nc21 (stereo not drawn) [Example 74, 3-(5-(1-ethyl-4-(pyrrolidin-1-ylmethyl)-1H-pyrrolo[2,3-b]pyridin-6-yl)-1-oxoisoindolin-2-yl) piperidine-2,6-dione]
IC50 (CRBN/DDB1): 0.5 to 1 µM | DC50 (IKZF2): 0.001 to 0.01 µM | Dmax (IKZF2): > 80% | DC50 (IKZF1): > 10 µM | Dmax (IKZF1): < 20%

Nc1n[nH]c2c(CN3CCC(O)C3)cc(-c3ccc4c(c3)CN(C3CCC(=O)NC3=O)C4=O)nc12 (stereo not drawn) [Example 196, 3-(5-(3-amino-7-((3-hydroxypyrrolidin-1-yl)methyl)-1H-pyrazolo[4,3-b]pyridin-5-yl)-1-oxoisoindolin-2-yl) piperidine-2,6-dione]
IC50 (CRBN/DDB1): 1 to 5 µM | DC50 (IKZF2): 0.1 to 1 µM | Dmax (IKZF2): 40 to 60% | DC50 (IKZF1): > 10 µM | Dmax (IKZF1): < 20%

Cn1ccc2c(CN3CCC(n4ccnc4)CC3)cc(-c3ccc4c(c3)CN(C3CCC(=O)NC3=O)C4=O)nc21 (stereo not drawn) [Example 115, 3-(5-(4-((4-(1HIimidazol-1-yl)piperidin-1-yl)methyl)-1-methyl-1H-pyrrolo[2,3-b]pyridin-6-yl)-1-oxoisoindolin-2-yl) piperidine-2,6-dione]
IC50 (CRBN/DDB1): 0.5 to 1 µM | DC50 (IKZF2): 0.01 to 0.1 µM | Dmax (IKZF2): 60 to 80% | DC50 (IKZF1): > 10 µM | Dmax (IKZF1): < 20%

Cn1ccc2c(CN3CC4CC4C3)cc(-c3ccc4c(c3)CN(C3CCC(=O)NC3=O)C4=O)nc21 (stereo not drawn) [Example 66, 3-(5-(4-((3-azabicyclo[3.1.0]hexan-3-yl)methyl)-1-methyl-1H-pyrrolo[2,3-b]pyridin-6-yl)-1-oxoisoindolin-2-yl) piperidine-2,6-dione]
IC50 (CRBN/DDB1): 0.1 to 0.5 µM | DC50 (IKZF2): < 0.001 µM | Dmax (IKZF2): > 80% | DC50 (IKZF1): > 10 µM | Dmax (IKZF1): 20 to 40%

Cn1ccc2c(CN3CC4(CCC4)C3)cc(-c3ccc4c(c3)CN(C3CCC(=O)NC3=O)C4=O)nc21 (stereo not drawn) [Example 112, 3-(5-(4-((2-azaspiro[3.3]heptan-2-yl)methyl)-1-methyl-1H-pyrrolo[2,3-b]pyridin-6-yl)-1-oxoisoindolin-2-yl) piperidine-2,6-dione]
IC50 (CRBN/DDB1): 0.1 to 0.5 µM | DC50 (IKZF2): < 0.001 µM | Dmax (IKZF2): > 80% | DC50 (IKZF1): 0.01 to 0.1 µM | Dmax (IKZF1): 20 to 40%

O=C1CCC(N2Cc3cc(-c4cc(CN5CCC5)c5[nH]ccc5n4)ccc3C2=O)C(=O)N1 (stereo not drawn) [Example 156, 3-(5-(7-(azetidin-1-ylmethyl)-1H-pyrrolo[3,2-b]pyridin-5-yl)-1-oxoisoindolin-2-yl) piperidine-2,6-dione]
IC50 (CRBN/DDB1): 1 to 5 µM | DC50 (IKZF2): 0.001 to 0.01 µM | Dmax (IKZF2): > 80% | DC50 (IKZF1): 0.01 to 0.1 µM | Dmax (IKZF1): 20 to 40%

CN(C)c1n[nH]c2c(CN3CCCC3)cc(-c3ccc4c(c3)CN(C3CCC(=O)NC3=O)C4=O)nc12 (stereo not drawn) [Example 179, 3-(5-(3-(dimethylamino)-7-(pyrrolidin-1-ylmethyl)-1H-pyrazolo[4,3-b]pyridin-5-yl)-1-oxoisoindolin-2-yl) piperidine-2,6-dione]
IC50 (CRBN/DDB1): 5 to 10 µM | DC50 (IKZF2): < 0.001 µM | Dmax (IKZF2): > 80% | DC50 (IKZF1): 0.01 to 0.1 µM | Dmax (IKZF1): 40 to 60%

O=C1CCC(N2Cc3cc(-c4cc(CN5CCCC5)c5c(n4)C(=O)NC5)ccc3C2=O)C(=O)N1 (stereo not drawn) [Example 233, 3-(1-ox0-5-(7-oxo-4-(pyrrolidin-1-ylmethyl)-6,7-dihydro-5H-pyrrolo[3,4-b]pyridin-2-yl)isoindolin-2-yl) piperidine-2,6-dione]
IC50 (CRBN/DDB1): 1 to 5 µM | DC50 (IKZF2): > 10 µM | Dmax (IKZF2): < 20% | DC50 (IKZF1): > 10 µM | Dmax (IKZF1): < 20%

CCn1ccc2nc(-c3ccc4c(c3)CN(C3CCC(=O)NC3=O)C4=O)cc(CN3CCC3)c21 (stereo not drawn) [Example 124, 3-(5-(7-(azetidin-1-ylmethyl)-1-ethyl-1H-pyrrolo[3,2-b]pyridin-5-yl)-1-oxoisoindolin-2-yl) piperidine-2,6-dione]
IC50 (CRBN/DDB1): 1 to 5 µM | DC50 (IKZF2): 0.001 to 0.01 µM | Dmax (IKZF2): > 80% | DC50 (IKZF1): 0.01 to 0.1 µM | Dmax (IKZF1): 20 to 40%

O=C1CCC(N2Cc3cc(-c4cc(CN5CCCC5)c5ccn(Cc6ccccc6)c5n4)ccc3C2=O)C(=O)N1 (stereo not drawn) [Example 147, 3-(5-(1-benzyl-4-(pyrrolidin-1-ylmethyl)-1H-pyrrolo[2,3-b]pyridin-6-yl)-1-oxoisoindolin-2-yl) piperidine-2,6-dione]
IC50 (CRBN/DDB1): 0.1 to 0.5 µM | DC50 (IKZF2): 0.001 to 0.01 µM | Dmax (IKZF2): 40 to 60% | DC50 (IKZF1): > 10 µM | Dmax (IKZF1): < 20%

Cn1ccc2c(CN3CCC(n4cccn4)CC3)cc(-c3ccc4c(c3)CN(C3CCC(=O)NC3=O)C4=O)nc21 (stereo not drawn) [Example 94, 3-(5-(4-((4-(1H-pyrazol-1-yl)piperidin-1-yl)methyl)-1-methyl-1H-pyrrolo[2,3-b]pyridin-6-yl)-1-oxoisoindolin-2-yl) piperidine-2,6-dione]
IC50 (CRBN/DDB1): < 0.1 µM | DC50 (IKZF2): 0.001 to 0.01 µM | Dmax (IKZF2): 60 to 80% | DC50 (IKZF1): > 10 µM | Dmax (IKZF1): < 20%

Cn1ccc2c(CN3CC4COCC(C4)C3)cc(-c3ccc4c(c3)CN(C3CCC(=O)NC3=O)C4=O)nc21 (stereo not drawn) [Example 70, 3-(5-(4-((3-oxa-7-azabicyclo[3.3.1]nonan-7-yl)methyl)-1-methyl-1H-pyrrolo[2,3-b]pyridin-6-yl)-1-oxoisoindolin-2-yl) piperidine-2,6-dione]
IC50 (CRBN/DDB1): 1 to 5 µM | DC50 (IKZF2): 0.001 to 0.01 µM | Dmax (IKZF2): > 80% | DC50 (IKZF1): > 10 µM | Dmax (IKZF1): < 20%

O=C1CCC(N2Cc3cc(-c4cc(CN5CCCC5)c5cc[nH]c5n4)c(F)cc3C2=O)C(=O)N1 (stereo not drawn) [Example 122, 3-(6-fluoro-1-oxo-5-(4-(pyrrolidin-1-ylmethyl)-1H-pyrrolo[2,3-b]pyridin-6-yl)isoindolin-2-yl) piperidine-2,6-dione]
IC50 (CRBN/DDB1): 1 to 5 µM | DC50 (IKZF2): 0.1 to 1 µM | Dmax (IKZF2): 20 to 40% | DC50 (IKZF1): 0.001 to 0.01 µM | Dmax (IKZF1): 20 to 40%

Cn1ccc2c(CN3CCSCC3)cc(-c3ccc4c(c3)CN(C3CCC(=O)NC3=O)C4=O)nc21 (stereo not drawn) [Example 62, 3-(5-(1-methyl-4-(thiomorpholinomethyl)-1H-pyrrolo[2,3-b]pyridin-6-yl)-1-oxoisoindolin-2-yl) piperidine-2,6-dione]
IC50 (CRBN/DDB1): 0.1 to 0.5 µM | DC50 (IKZF2): 0.001 to 0.01 µM | Dmax (IKZF2): > 80% | DC50 (IKZF1): > 10 µM | Dmax (IKZF1): < 20%

C[C@@H]1CC[C@@H](C)N1Cc1cc(-c2ccc3c(c2)CN(C2CCC(=O)NC2=O)C3=O)nc2c1ccn2C (stereo partly drawn) [Example 108, 3-(5-(4-(((2R,5R)-2,5-dimethylpyrrolidin-1-yl)methyl)-1-methyl-1H-pyrrolo[2,3-b]pyridin-6-yl)-1-oxoisoindolin-2-yl) piperidine-2,6-dione]
IC50 (CRBN/DDB1): 0.5 to 1 µM | DC50 (IKZF2): 0.001 to 0.01 µM | Dmax (IKZF2): 60 to 80% | DC50 (IKZF1): > 10 µM | Dmax (IKZF1): < 20%

CC#CCn1ccc2c(CN3CCCC3)cc(-c3ccc4c(c3)CN(C3CCC(=O)NC3=O)C4=O)nc21 (stereo not drawn) [Example 148, 3-(5-(1-(but-2-yn-1-yl)-4-(pyrrolidin-1-ylmethyl)-1H-pyrrolo[2,3-b]pyridin-6-yl)-1-oxoisoindolin-2-yl) piperidine-2,6-dione]
IC50 (CRBN/DDB1): 0.1 to 0.5 µM | DC50 (IKZF2): 0.001 to 0.01 µM | Dmax (IKZF2): 60 to 80% | DC50 (IKZF1): > 10 µM | Dmax (IKZF1): < 20%

Nc1n[nH]c2c(CN3CCC3)cc(-c3ccc4c(c3)CN(C3CCC(=O)NC3=O)C4=O)nc12 (stereo not drawn) [Example 208, 3-(5-(3-amino-7-(azetidin-1-ylmethyl)-1H-pyrazolo[4,3-b]pyridin-5-yl)-1-oxoisoindolin-2-yl) piperidine-2,6-dione]
IC50 (CRBN/DDB1): < 0.1 µM | DC50 (IKZF2): 0.1 to 1 µM | Dmax (IKZF2): 60 to 80% | DC50 (IKZF1): > 10 µM | Dmax (IKZF1): < 20%

Cn1ccc2c(Cn3cnc4ccccc43)cc(-c3ccc4c(c3)CN(C3CCC(=O)NC3=O)C4=O)nc21 (stereo not drawn) [Example 97, 3-(5-(4-((1H-benzo[d]imidazol-1-yl)methyl)-1-methyl-1H-pyrrolo[2,3-b]pyridin-6-yl)-1-oxoisoindolin-2-yl) piperidine-2,6-dione]
IC50 (CRBN/DDB1): < 0.1 µM | DC50 (IKZF2): 0.01 to 0.1 µM | Dmax (IKZF2): 40 to 60% | DC50 (IKZF1): > 10 µM | Dmax (IKZF1): < 20%

CC(C)C1CCN(Cc2cc(-c3ccc4c(c3)CN(C3CCC(=O)NC3=O)C4=O)nc3[nH]ccc23)C1 (stereo not drawn) [Example 146]
IC50 (CRBN/DDB1): 0.1 to 0.5 µM | DC50 (IKZF2): 0.001 to 0.01 µM | Dmax (IKZF2): > 80% | DC50 (IKZF1): 0.001 to 0.01 µM | Dmax (IKZF1): 40 to 60%
